One assay has as its system K562 CML cell line. The assay can be described thus: 13C6 glucose tracing in K562 CML cell line. Type of assay: cell-based, human. As to conditions: K562, several concentrations. The method, then:
For conjugation of palmitate, a 20 mM stock was made in 100% EtOH. This was incubated on a shaking heater, 60° C. until the solution clarified. The palmitate was then added to 10% BSA (ultra-fatty acid free in EBSS, Roche, 03117057001) to give a palmitate:BSA ratio of 1:3 BSA. This solution was left for 15 min in water bath (37° C.), and then added to final concentration in complete medium. For cell line experiments, the medium was RPMI with 10% dialysed FBS and 1% penicillin/streptomycin. For tracing experiments 11 mM ^13C6 glucose was added to glucose-free RPMI.
Biological and technical replicates were processed through Autoplotter (56) and natural abundance was corrected for. Fraction of enrichment was calculated as m+2 and above. For CML samples treated with or without imatinib, multiple paired T-tests were conducted on Log 10 transformed values in Graphpad Prism. The correction for multiple comparisons was the two-stage step-up method of Benjamini, Krieger and Yekutieli with an FDR (Q) value of 10%. For volcano plots Log 10 FC vs Log 10 (q value) are plotted with q values>5% in red and >10% in blue. For normal vs CML comparisons, the process was the same with the exception that unpaired t-tests were used. For PC activity in normal vs CML, this is denoted by fraction m+3. For imatinib vs untreated we look at relative activity to PDH. IE., the m+3/m+2 ratio and conducted multiple t-tests with correction for multiple comparisons being the two-stage step-up method of Benjamini, Krieger and Yekutieli with an FDR (Q) value of 10%. To examine contribution to carbon pool we corrected contribution of each isotopologue by the number of carbons it contributes to a given metabolite, i.e., for glutamine contribution from m+5 is greater than m+3. Note that for cell line experiments standard deviation is shown.

Another assay deals with CML CD34+ cells. Description: Patient-derived xenograft of CML CD34+ cells in NRG-W41 mice, bone marrow flow cytometry. It counts as in vivo, human. On the procedure: Treatment was given for 4 weeks. For treatment with asciminib (ABL001) plus MSDC-0160, twelve weeks following transplant, drug treatment was started with both asciminib (Fisher Scientific Cat #1642956) dosed at 10 mg/kg/day (5 mg/kg BID); oral gavage and MSDC-0160 (Apex Biotechnology: Cat #B3702) dosed at 30 mg/kg; oral gavage once daily. Treatment was given for 4 weeks. At the respective endpoints, bone marrow cells were collected. This was done by placing inverted cut leg bones into 0.5 mL Eppendorf tubes with holes at bottom. These in turn were placed within 1.5 mL Eppendorf tubes containing PBS, centrifuged (12,000 RCF, 20 seconds). Cells were stained (300 μl/test) with anti-mouse (APC-Cy7 BD Biosciences: Cat #557659, RRID: AB_396774, 1 μl), anti-human CD45 (FITC; BD Biosciences: Cat #555482, RRID: AB_395874, 10 μl), anti-human CD34 (APC; BD Biosciences: Cat #555824, RRID: AB_398614, 2 μl) and anti-human CD38 (PerCP; BioLegend: Cat #303520, RRID: AB_893313, 2 μl) antibodies for flow cytometry analysis as described above.

The next assay concerns the target T1, MPC (Homo sapiens, UniProt O95563+Q9Y5U8).
T1 sequence (Q9Y5U8 1-109): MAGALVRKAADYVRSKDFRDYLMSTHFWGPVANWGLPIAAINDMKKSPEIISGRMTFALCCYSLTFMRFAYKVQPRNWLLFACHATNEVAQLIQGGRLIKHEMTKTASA
T1 sequence (O95563 1-127): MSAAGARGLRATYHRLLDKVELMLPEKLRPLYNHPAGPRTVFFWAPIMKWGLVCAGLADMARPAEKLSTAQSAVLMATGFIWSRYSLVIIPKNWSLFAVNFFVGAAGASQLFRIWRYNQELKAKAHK
As to conditions: variety of cell types (ref 27); cited from earlier work.

Another assay deals with phospho-CRKL. The assay can be described thus: Western blot of phospho-CRKL in CML patient samples. As to conditions: imatinib, two patient samples. Type of assay: cell-based, human.
A further assay has as its system KCL22 cell line. The assay can be described thus: Imatinib sensitivity of PC knockout KCL22 cell line. Type of assay: cell-based, human. The following applies: data not shown.
The mark [1] stands for this setting: combination of imatinib and MSDC-0160, 4 weeks.

Protocol for phospho-CRKL: Cells were lysed in RIPA buffer containing mini-Complete protease inhibitor cocktail and phosphatase inhibitors (both Roche). Total protein concentration was quantified using a Pierce BCA kit (Thermo Fisher Scientific: 23227). Equal amounts of protein (5-7.5 μg) were heated at 95° C. for 5 min and separated (120V) in 4-12% gels (Novex) for SDS-PAGE. Proteins were transferred onto PDVF membranes (Thermo Fisher Scientific: 21882) then blocked in 2% BSA (in Tris-buffered saline, 0.01% Tween (TBS-T)) for one hour. Next, membranes were incubated overnight at 4° C. with the primary antibodies. The membranes were rinsed three times with TBS-T, then incubated with secondary HRP-linked antibodies (1:10,000) for 1 hour at room temperature. The SuperSignal West Femto Maxi detection system was used (Thermo Fisher Scientific: 34095) and imaging was carried out using a LI-COR Odyssey Fc gel-doc system.

Turning to `CCc1ccc(C(=O)COc2ccc(CC3SC(=O)NC3=O)cc2)nc1` (centres unmarked) [MSDC-0160], in the assay on K562 CML cell line, the “labelled fractions in alpha-ketoglutarate (AKG) and AKG-derived glutamate” value is given as “reducing levels of all labelled fractions in these metabolites in a concentration-dependent manner”. Besides, the “glucose contribution to fraction of labelling” value with K562 CML cell line (data not shown) is on record as “concentration-dependent reduction”. Further, in the assay with CML CD34+ cells (MSDC-0160 30 mg/kg once daily, 4 weeks, 12 weeks engraftment), the “percentage of human CML LSCs, MSDC-0160 on its own” value was “reduction in the percentage of human CML LSCs”. Moreover, the “percentage of human CML LSCs, combination with ABL-001” value in the assay with CML CD34+ cells (MSDC-0160 30 mg/kg plus ABL-001 10 mg/kg/day, 4 weeks) was “reduction in the percentage of human CML LSCs”. In the assay on CML CD34+ cells (combination of ABL-001 and MSDC-0160 30 mg/kg, 4 weeks), the “total numbers of CML CD45+CD34+CD38- cells (LSC)” value is recorded as “did not reduce the total numbers”. The “reduction in percentage of human CD45+ leukocytes and total number of bone marrow CD45+ cells” value in the assay on CML CD34+ cells (combination of imatinib 50 mg/kg BID and MSDC-0160 30 mg/kg/day, 4 weeks) is “did not reach statistical significance”. Also, in the assay with CML CD34+ cells (setting [1]), the “percentage and absolute number of human CML LSCs (CD34+CD38-)” value was “marked reduction in both the percentage and absolute number”; the “relative and total reduction of CD34+ cells versus vehicle or imatinib arms” value is reported as “did not reach statistical significance”. For the same compound, the “inhibition of MPC activity” value on MPC is on record as “specifically inhibit MPC activity”.
For `Cc1ccc(NC(=O)c2ccc(CN3CCN(C)CC3)cc2)cc1Nc1nccc(-c2cccnc2)n1` [imatinib], the phospho-CRKL protein level entry in the assay with phospho-CRKL was “decreased”. Also, the “sensitivity to the drug after knockout of PC in KCL22” value in the assay with KCL22 cell line is “failed to increase sensitivity”.

Values taken from US20260014129A1, “MITOCHONDRIAL PYRUVATE METABOLISM INHIBITORS FOR TREATING CHRONIC MYELOID LEUKEMIA” (The University Court of the University of Glasgow, priority 2022, published 2026).
